# The source made the active and inactive calls. The rule behind the calls is not given here.
# Tests used:
# Jurkat [1] = assay: Increase in cell surface thiol level in human Jurkat cells at 320 uM after 64 hrs by avidin-FITC staining-based FACS analysis relative to untreated control; format: functional
# Jurkat [2] = assay: Increase in cell surface thiol level in human Jurkat cells at 40 uM after 2 days by avidin-FITC staining-based FACS analysis relative to untreated control; format: functional
# Jurkat [3] = assay: Increase in cell surface thiol level in human Jurkat cells at 10 uM after 64 hrs by avidin-FITC staining-based FACS analysis relative to untreated control; format: functional
# Jurkat [4] = assay: Increase in cell surface thiol level in human Jurkat cells at 160 uM after 64 hrs by avidin-FITC staining-based FACS analysis relative to untreated control; format: functional
# Jurkat [5] = assay: Increase in N-thioglycolylneuraminic acid level in human Jurkat cells at 10 uM after 2 hrs by avidin-FITC staining-based FACS analysis in presence of disulfide reducing agent TCEP relative to untreated control; format: functional
# Jurkat [6] = assay: Increase in N-thioglycolylneuraminic acid level in human Jurkat cells at 10 uM after 2 hrs by avidin-FITC staining-based FACS analysis in absence of disulfide reducing agent TCEP relative to untreated control; format: functional
# Jurkat [7] = assay: Induction of human Jurkat cell adhesion assessed as spontaneous clustering of cells at 50 uM after 2 days by inverted microscopy; format: functional, cell-based
# Jurkat [8] = assay: Induction of human Jurkat cell adhesion assessed as covalent cellular attachment to maleimide functionalized BSA-coated superaldehyde glass surface at 100 uM after 48 hrs by fluorescence microscopy; format: functional, cell-based
# Jurkat [9] = assay: Induction of human Jurkat cell adhesion assessed as covalent cellular attachment to BSA-coated superaldehyde glass surface at 100 uM after 48 hrs by fluorescence microscopy in absence of maleimide coating; format: functional, cell-based
# Jurkat [10] = assay: Cytotoxicity against human Jurkat cells at 100 uM after 48 hrs; format: cell-based
# Lvec [11] = assay: Increase in N-thioglycolylneuraminic acid level in human LVEC at 10 uM after 7 days by avidin-FITC staining-based FACS analysis relative to untreated control; format: functional
# Lvec [12] = assay: Increase in N-thioglycolylneuraminic acid level in human LVEC after 7 days by avidin-FITC staining-based FACS analysis relative to untreated control; format: functional, cell-based
# Lvec [13] = assay: Increase in N-thioglycolylneuraminic acid level in human LVEC at 10 uM after 3 days by avidin-FITC staining-based FACS analysis; format: functional, cell-based
# Lvec [14] = assay: Effect on human LVEC cell morphology cultured on gold-coated cover slips at 10 uM measured on day 9 post treatment by DAPI staining-based confocal microscopy; format: functional
# [15] = Induction of human LVEC cell differentiation into neural cell lineage cultured on gold-coated cover slips assessed as effect on cytoskeleton distribution at 10 uM measured on day 9 post treatment by DAPI staining-based confocal microscopy; format: functional
# [16] = Decrease in human LVEC cell proliferation at 10 uM for 3 days followed by second treatment of 50 uM on day 4 measured on day 9 by nestin immunostaining; format: cell-based; conditions: 72 h
# Lvec [17] = assay: Increase in beta-casein expression in human LVEC cultured on gold-coated cover slips at 10 uM after 13 days by oregon green 488 phalloidin and DAPI staining; format: functional, cell-based
# Lvec [18] = assay: Translocation of beta-casein into nucleus of human LVEC cultured on gold-coated cover slips at 10 uM after 13 days by oregon green 488 phalloidin and DAPI staining; format: functional, cell-based
# Lvec [19] = assay: Mild increase in beta-casein expression in human LVEC cultured on glass surface at 10 uM after 13 days by oregon green 488 phalloidin and DAPI staining; format: functional, cell-based
# Jurkat [20] = assay: Modulation of cell surface thiol level in human Jurkat cells at 100 uM after 64 hrs by avidin-FITC staining-based FACS analysis; format: functional
compound,measurement,setting,value
CC(=O)CCC(=O)N[C@@H]1C(OC(C)=O)O[C@H](COC(C)=O)[C@@H](OC(C)=O)[C@@H]1OC(C)=O (stereo partly specified),fold change (FC),Jurkat [1],34
CC(=O)OC[C@H]1O[C@H](OC(C)=O)[C@@H](NC(=O)CSC(C)=O)[C@@H](OC(C)=O)[C@@H]1OC(C)=O,fold change (FC),Jurkat [2],14
same,fold change (FC),Jurkat [3],19
same,fold change (FC),Jurkat [4],40
same,fold change (FC),Jurkat [1],34
same,fold change (FC),Jurkat [5],120
same,fold change (FC),Jurkat [6],13
same,Activity,Jurkat [7],Active
same,Activity,Jurkat [8],Active
same,Activity,Jurkat [9],inactive
same,Activity,Jurkat [10],Non-toxic
same,fold change (FC),Lvec [11],15
same,Activity,Lvec [12],Dose-dependent effect
same,Activity,Lvec [13],Active
same,Activity,Lvec [14],Active
same,Activity,[15],Active
same,Activity,[16],Toxic
same,Activity,Lvec [17],Active
same,Activity,Lvec [18],Active
same,Activity,Lvec [19],Active
CC(=O)OCC(=O)N[C@@H]1[C@@H](OC(C)=O)O[C@H](COC(C)=O)[C@@H](OC(C)=O)[C@@H]1OC(C)=O,Activity,Jurkat [20],inactive
same,Activity,Jurkat [7],Active
same,Activity,Jurkat [8],Active
same,Activity,Jurkat [9],inactive
same,Activity,Lvec [14],inactive
CC(=O)N[C@@H]1C(OC(C)=O)O[C@H](COC(C)=O)[C@@H](OC(C)=O)[C@@H]1OC(C)=O (stereo partly specified),fold change (FC),Jurkat [1],34

# Source: ChEMBL document CHEMBL1221180, “Metabolic installation of thiols into sialic acid modulates adhesion and stem cell biology” (Nat Chem Biol, 2006)
